Data as given in US7589100B2, “Non-hygroscopic and powdery amorphous pimecrolimus” (TEVA Gyógyszergyár Zártkörún Müködö Részvénytársaság, priority 2004, dated 2009).

Assay: Hygroscopicity: water content (LOD) of samples stored at different relative humidity for one week
Format: physicochemical
Excerpt: As used herein, the term “non-hygroscopic” refers to a compound that contains no more than about 2% wt/wt of water, more preferably no more than about 1.5% wt/wt of water, most preferably no more than about 1% wt/wt of water, when exposed to 80% humidity, at room temperature for 1 week. The hygroscopicity of amorphous pimecrolimus of the present invention was examined by measuring the water content in samples stored at different relative humidity value (RH) (0, 40, 60, and 80 percent) for a period of one week.

- hygroscopicity (result in words) (RH 0 to 80 percent, one week): non-hygroscopic
- LOD (%) (original sample, before storage): 1.1%
- LOD (%) (stored at RH 0 % for one week): 0.8%
- LOD (%) (stored at RH 40 % for one week): 1.1%
- LOD (%) (stored at RH 60 % for one week): 1.1%
- LOD (%) (stored at RH 80 % for one week): 1.1%
- water content of the samples (stored at relative humidity from about 0 percent to about 80 percent, one week): about 1%
SMILES: CC[C@@H]1/C=C(\C)C[C@H](C)C[C@H](OC)[C@H]2O[C@@](O)(C(=O)C(=O)N3CCCC[C@H]3C(=O)O[C@H](/C(C)=C/[C@@H]3CC[C@H](Cl)[C@H](OC)C3)[C@H](C)[C@@H](O)CC1=O)[C@H](C)C[C@@H]2OC [Pimecrolimus, (1R,9S,12S,13R,14S,17R,18E,21 S,23S,24R,25S,27R)-12-[(1E)-2-{(1R,3R,4S)-4-chloro-3-methoxycyclohexyl}-1-methylvinyl]-17-ethyl-1,14-dihydroxy-23,25-dimethoxy-13,19,21,27-tetramethyl-11,28-dioxa-4-aza-tricyclo[22.3.1.0^4,9]octacos-18-ene-2,3,10,16-tetraone]
